According to patent US20080234130A1, “Compositions providing tolerance to multiple herbicides and methods of use thereof” (priority 2005, published 2008):

Tests used:
[1] = system: non-glyphosate resistant ryegrass (70-04); assay: Control of ryegrass by glyphosate, metsulfuron-methyl and two additives (Table 23); format: in vivo
Description: The example was conducted on non-glyphosate resistant ryegrass. As provided in Table 23, all treatments that included glyphosate [180 g a.i. L ha^−1 (0.5 L glyphosate (SCAT®))] plus metsulfuron-methyl (BRUSH-OFF®) (5 and 10 g ha^−1) gave 100% control of the ryegrass.
• Biotype: non-glyphosate resistant ryegrass (70-04) • Population profile: Rup 0.25 control (%) 6.25 • Rup 0.5 control (%) 81.25 • Rup 1.0 control (%) 93.75 • Growth Stage: 5-6 leaf stage • Conditions: hot and sunny • Volume rate: 200 L ha^−1

[2] = system: non-glyphosate resistant Conyza (Welgevallen-paraquat resistant); assay: Control of hairy fleabane by glyphosate, metsulfuron-methyl and two additives (Table 24); format: in vivo, Conyza bonariensis
Description: This example included the same treatments as used in Example 11, except the treatments were carried out on a glyphosate sensitive biotype of Kleinskraalhans (Conyza bonariensis).
• Biotype: Non-glyphosate resistant Conyza (Welgevallen-paraquat resistant) • Growth Stage: 10-15 leaf stage • Conditions: Cool and sunny • Volume rate: 200 L ha^−1 • glyphosate (ROUNDUP): 360 g a.i. L^−1

control maize = assay: Postemergence herbicide spray at V2, injury evaluated 10-14 days after application; format: in vivo; conditions: tribenuron, chlorimuron, imazapyr 200 g ai/ha, metsulfuron-methyl 0.5 oz ai/ac or 35 g ai/ha, 10-14 days after spray
[3] = system: heterozygous GAT-HRA corn; assay: Preemergence effect of ALS herbicides (fresh weight, visual injury); conditions: 200 g/ha, mean of four replications; for % Visual Injury Heterozygous GAT-HRA: 4 weeks after treatment, 0% no injury, 100% plant death; for Fresh Weight (g) Heterozygous GAT-HRA: fresh shoots 4 weeks after treatment, untreated 47.0 g
[4] = system: heterozygous GAT-HRA corn; assay: Postemergence effect of ALS herbicides, glyphosate and glufosinate (fresh weight, visual injury); conditions: 200 g/ha (glyphosate 3472 g ae/ha, glufosinate ammonium 1870 g/ha), mean of four replications; for % Visual Injury Heterozygous GAT-HRA: 2 weeks after treatment, 0% no injury, 100% plant death; for Fresh Weight (g) Heterozygous GAT-HRA: applied two weeks after planting, fresh shoots 2 weeks after treatment, untreated 98.8 g
[5] = system: parent elite stiff stalk inbred corn; assay: Preemergence effect of ALS herbicides (fresh weight, visual injury); conditions: 200 g/ha, mean of four replications; for % Visual Injury Patent elite stiff stalk inbred: 4 weeks after treatment, 0% no injury, 100% plant death; for Fresh Weight (g) patent elite stiff stalk inbred: fresh shoots 4 weeks after treatment, untreated 36.7 g
GAT-HRA maize = assay: Postemergence herbicide spray at V2, injury evaluated 10-14 days after application
Description: GAT-HRA maize plants were evaluated for tolerance to glyphosate and other herbicides. One protocol used in this evaluation was as follows. At the V2 stage (Ritchie and Hanway (1982), “How a corn plant develops” Spec. Rep. 48. (Coop. Ext. Ser., Iowa State Univ., Ames, Iowa)), plant heights were measured and herbicides were applied by spray application. Ten to fourteen days after the spray application, the transgenic plants were evaluated for injury symptoms and measured for plant height again in order to determine plant growth rates.
Plants were then evaluated at various times after treatment, such as 10 or 14 days after treatment. […] Leaf samples were taken from GAT-HRA plants and used in quantitative PCR analysis and other analyses to determine the number and arrangement of copies of the GAT and HRA polynucleotides that had been integrated into the plant genome.
Other protocols for evaluation included treatment with imidazolinone herbicides, such as the commercial herbicide Lightning® (a combination of imazapyr and imazethapyr), which was applied to GAT-HRA maize at the V2 leaf stage at four times the field label rate (250 g ai/ha). […] Another protocol for evaluation included treatment with imidazolinone herbicides as well as sulfonylurea and glyphosate herbicides. In these tests, GAT-HRA maize was treated with various combinations of Lightning® (imazapyr and imazethapyr), Basis® (rimsulfuron and thifensulfuron-methyl) and WeatherMAX® (glyphosate potassium salt). These herbicides were applied at the V2 stage as follows: Lightning® at twice the field label rate (1.8 oz ai/ac (133 ml ai/ha)), Basis® at twice the field label rate (0.5 oz ai/ac (36.9 ml ai/ha)) and WeatherMax® at four times the field label rate (43 oz ai/ac). Fourteen days after the treatment application, the plants were evaluated. […] “Field label rate” refers to the application rate specified on the product label. Where the application rate for a particular situation is a range of rates, as used herein, the term “field label rate” indicates the upper end of that range. […]

[6] = system: parent elite stiff stalk inbred corn; assay: Postemergence effect of ALS herbicides, glyphosate and glufosinate (fresh weight, visual injury); conditions: 200 g/ha (glyphosate 3472 g ae/ha, glufosinate ammonium 1870 g/ha), mean of four replications; for % Visual Injury Parent elite stiff stalk inbred: 2 weeks after treatment, 0% no injury, 100% plant death; for Fresh Weight (g) Parent elite stiff stalk inbred: applied two weeks after planting, fresh shoots 2 weeks after treatment, untreated 76.4 g
[7] = system: non-transgenic control soybeans; assay: Postemergence greenhouse spray of soybeans, visual injury (Table 11); conditions: tribenuron-methyl 35 g/ha
Description: Young regenerated transgenic plants were sprayed with 1× glyphosate (1× rate of glyphosate is 1120 g/ha of glyphosate isopropylamine) to cull segregants. Four replications were performed for each treatment. Plants were then treated with various herbicides, including glyphosate and ALS-inhibitor herbicides.
Six soybean seeds from each variety to be assayed were planted 1 cm deep in 5.5 (13.97 cm) inch square plastic container of a synthetic growth medium. […] When possible, containers were thinned to two uniform plants. Non-transgenic lines were thinned to two uniform plants per container.
Results are expressed below in Table 11 as the mean of four replications.

[8] = Trial 2: metsulfuron-methyl (BRUSH-OFF) 5 g/ha
[9] = Trial 3: metsulfuron-methyl (BRUSH-OFF) 10 g/ha

| SMILES | Control (%) [1, 8] | Control (%) [1, 9] | Control (%) [2, 8] | Control (%) [2, 9] | damage from the treatment, control maize (control maize) | % Visual Injury Heterozygous GAT-HRA [3] | % Visual Injury Heterozygous GAT-HRA [4] | % Visual Injury Patent elite stiff stalk inbred [5] | damage from the treatment, GAT-HRA maize (GAT-HRA maize; in vivo) | % Visual Injury Parent elite stiff stalk inbred [6] | effect on non-transgenic control soybeans [7] | Fresh Weight (g) Heterozygous GAT-HRA [3] | Fresh Weight (g) Heterozygous GAT-HRA [4] | Fresh Weight (g) patent elite stiff stalk inbred [5] | damage from the treatment, GAT-HRA maize (GAT-HRA maize; postemergence spray at V2, tribenuron (Express), chlorimuron (Classic), imazapyr (Arsenal) 200 g ai/ha, metsulfuron-methyl (Ally) 0.5 oz ai/ac or 35 g ai/ha, 10-14 days after spray) | Fresh Weight (g) Parent elite stiff stalk inbred [6] |
| --- | --- | --- | --- | --- | --- | --- | --- | --- | --- | --- | --- | --- | --- | --- | --- | --- |
| COC(=O)c1ccccc1S(=O)(=O)NC(=O)Nc1nc(C)nc(OC)n1 [Metsulfuron-methyl (BRUSH-OFF ®)] | 0% | 0% | 100% | 100% |  |  |  |  |  |  |  |  |  |  |  |  |
| COC(=O)c1ccccc1S(=O)(=O)NC(=O)Nc1nc(C)nc(OC)n1 [Metsulfuron-methyl, methyl 2-[[[[(4-methoxy-6-methyl-1,3,5-triazin-2-yl)amino]carbonyl]amino]sulfonyl]benzoate] |  |  |  |  | severely damaged or killed | 0% | 14% | 100% | no significant damage | 100% |  |  |  |  |  |  |
| COC(=O)c1ccccc1S(=O)(=O)NC(=O)N(C)c1nc(C)nc(OC)n1 [Tribenuron-methyl, methyl 2-[[[[N-(4-methoxy-6-methyl-1,3,5-triazin-2-yl)-N-methylamino]carbonyl]-amino]sulfonyl]benzoate] |  |  |  |  |  | 25% | 8% | 66% |  | 100% | killed by the treatment |  |  |  |  |  |
| CCOC(=O)c1ccccc1S(=O)(=O)NC(=O)Nc1nc(Cl)cc(OC)n1 [Chlorimuron-ethyl, ethyl 2-[[[[(4-chloro-6-methoxy-2-pyrimidinyl)amino]carbonyl]amino]sulfonyl]-benzoate] |  |  |  |  | severely damaged or killed | 10% | 15% | 100% |  | 93% |  | 39.4 g | 95.5 g | 9.3 g | no significant damage | 10.1 g |
| CCCOc1nn(C(=O)NS(=O)(=O)c2ccccc2C(=O)OC)c(=O)n1C [Propoxycarbazone Na^+, methyl 2-[[[(4,5-dihydro-4-methyl-5-oxo-3-propoxy-1H-1,2,4-triazol-1-yl)carbonyl]amino]sulfonyl]benzoate] |  |  |  |  |  | 100% | 9% | 100% |  | 100% |  | 46.7 g | 101.2 g | 0.6 g |  | 1.9 g |
| CC(C)C1(C)N=C(c2ncccc2C(=O)O)NC1=O (stereo not drawn) [Imazapyr] |  |  |  |  | severely damaged or killed | 30% | 1% | 99% | no significant damage | 100% |  |  |  |  |  |  |
| COC(=O)c1sccc1S(=O)(=O)NC(=O)Nc1nc(C)nc(OC)n1 [Thifensulfuron-methyl, methyl 3-[[[[(4-methoxy-6-methyl-1,3,5-triazin-2-yl)amino]carbonyl]amino]sulfonyl]-2-thiophenecarboxylate] |  |  |  |  |  | 3% | 10% | 88% |  | 98% |  |  |  |  |  |  |
| COc1nc(C)nc(NC(=O)NS(=O)(=O)c2ccccc2Cl)n1 [Chlorsulfuron, 2-chloro-N-[[(4-methoxy-6-methyl-1,3,5-triazin-2-yl)amino]-carbonyl]benzenesulfonamide] |  |  |  |  |  | 33% | 13% | 100% |  | 100% |  |  |  |  |  |  |
| COc1cc(OC)nc(Sc2cccc(Cl)c2C(=O)[O-])n1.[Na+] [Pyrithiobac Na^+, pyrithiobac-sodium] |  |  |  |  |  | 0% | 9% | 100% |  | 100% |  | 48.6 g | 87.9 g | 0.0 g |  | 2.8 g |
| COC(=O)c1cccc(C)c1S(=O)(=O)NC(=O)Nc1nc(OCC(F)(F)F)nc(N(C)C)n1 [Triflusulfuron-methyl] |  |  |  |  |  | 5% | 8% | 100% |  | 100% |  | 53.5 g | 110.9 g | 26.3 g |  | 2.1 g |
| COC(=O)c1ccccc1CS(=O)(=O)NC(=O)Nc1nc(OC)cc(OC)n1 [Bensulfuron-methyl, methyl 2-[[[[[(4,6-dimethoxy-2-pyrimidinyl)amino]carbonyl]amino]sulfonyl]methyl]benzoate] |  |  |  |  |  | 10% | 14% | 23% |  | 93% |  |  |  |  |  |  |
| COC(=O)c1ccccc1S(=O)(=O)NC(=O)Nc1nc(C)cc(C)n1 [Sulfometuron-methyl, methyl 2-[[[[(4,6-dimethyl-2-pyrimidinyl)amino]carbonyl]amino]sulfonyl]-benzoate] |  |  |  |  |  | 6% | 2% | 100% |  | 100% |  | 47.3 g | 104.5 g | 0.0 g |  | 2.0 g |
